Test results taken from the supplement of paper PMC10307832.

Each cell line was assayed with Cn1cnc2c(F)c(Nc3ccc(Br)cc3Cl)c(C(=O)NOCCO)cc21 [Selumetinib] + Nc1nc2[nH]cc(CCc3ccc(C(=O)N[C@@H](CCC(=O)O)C(=O)O)cc3)c2c(=O)[nH]1 [Pemetrexed] (partner 0.2 µM) (assay: relative viability (nuclei count vs DMSO), 5 days (fraction); higher = more cells survive). Conditions: first compound 0.02 µM.
Summary of the method: (§1)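 Values are medians from duplicate plates. Each reflects relative viability, defined as the nuclei count of treated wells over that of vehicle wells. Lung cancer cell lines in 1536-well plates were pin-tool dosed one day after seeding with one drug alone or with a fixed anchor-drug dose plus five library-drug doses (not always all listed) in √10 steps, then fixed, stained and imaged at 4× after 5 days.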

First: NCI-H1666
Second: NCI-H1755
The relative viability of the first is higher: 0.811 for the first, 0.467 for the second.

Compared with NCI-H2023, EPLC-272H is higher in relative viability: 0.247 for the first, 0.317 for the second.

Compared with LCLC-97TM1, PC-3 [JPC-3] is higher in relative viability: 0.186 for the first, 1.2 for the second.

Compared with LOU-NH91, NCI-H647 is lower in relative viability: 0.438 for the first, 0.177 for the second.

Compared with NCI-H23, EMC-BAC-2 is lower in relative viability: 0.811 for the first, 0.508 for the second.

First: NCI-H2126
Second: HCC-44
The relative viability of the first is lower: 0.627 for the first, 0.635 for the second.

Going from NCI-H1734 to NCI-H650, the relative viability rises from 0.387 to 1.05.

Compared with LK-2, NCI-H2228 is higher in relative viability: 0.282 for the first, 0.375 for the second.

Compared with NCI-H2342, SK-MES-1 is higher in relative viability: 0.778 for the first, 0.875 for the second.

Compared with HARA, COR-L23 is lower in relative viability: 0.24 for the first, 0.202 for the second.

Going from COR-L 105 to SW 900, the relative viability falls from 1.11 to 0.474.

Going from NCI-H1792 to NCI-H661, the relative viability rises from 0.637 to 0.955.

Going from NCI-H1563 to LCLC-103H, the relative viability falls from 0.835 to 0.437.

For NCI-H358, the relative viability was 0.173.

Same assay, conditions: first compound 0.06325 µM

Going from NCI-H522 to PC-14, the relative viability falls from 0.942 to 0.114.

First: NCI-H1666
Second: NCI-H1755
The relative viability of the first is higher: 0.775 for the first, 0.409 for the second.

Going from NCI-H2023 to EPLC-272H, the relative viability rises from 0.137 to 0.375.

First: LCLC-97TM1
Second: PC-3 [JPC-3]
The relative viability of the first is lower: 0.237 for the first, 0.819 for the second.

First: LOU-NH91
Second: NCI-H647
The relative viability of the first is higher: 0.397 for the first, 0.178 for the second.

Compared with NCI-H23, EMC-BAC-2 is higher in relative viability: 0.43 for the first, 0.539 for the second.

Going from NCI-H2126 to HCC-44, the relative viability rises from 0.612 to 0.748.

Going from NCI-H1734 to NCI-H650, the relative viability rises from 0.373 to 1.25.

First: LK-2
Second: NCI-H2228
The relative viability of the first is lower: 0.349 for the first, 0.394 for the second.

First: NCI-H2342
Second: SK-MES-1
The relative viability of the first is lower: 0.7 for the first, 0.746 for the second.

First: HARA
Second: COR-L23
The relative viability of the first is lower: 0.179 for the first, 0.217 for the second.

First: COR-L 105
Second: SW 900
The relative viability of the first is higher: 1.02 for the first, 0.449 for the second.

Going from NCI-H1648 to NCI-H1792, the relative viability falls from 0.838 to 0.648.

Going from NCI-H661 to NCI-H1563, the relative viability falls from 0.875 to 0.778.

Going from LCLC-103H to NCI-H358, the relative viability falls from 0.479 to 0.165.

Same assay, conditions: first compound 0.2 µM

Going from NCI-H522 to PC-14, the relative viability falls from 1 to 0.107.

Compared with NCI-H1666, NCI-H1755 is lower in relative viability: 0.765 for the first, 0.428 for the second.

Going from NCI-H2023 to EPLC-272H, the relative viability rises from 0.239 to 0.326.

Compared with LCLC-97TM1, PC-3 [JPC-3] is higher in relative viability: 0.219 for the first, 0.82 for the second.

Going from LOU-NH91 to NCI-H647, the relative viability falls from 0.458 to 0.19.

Going from NCI-H23 to EMC-BAC-2, the relative viability rises from 0.465 to 0.522.

NCI-H2126 and HCC-44 are the same in relative viability: 0.684 for the first, 0.684 for the second.

First: NCI-H1734
Second: NCI-H650
The relative viability of the first is lower: 0.404 for the first, 1.19 for the second.

Compared with LK-2, NCI-H2228 is lower in relative viability: 0.352 for the first, 0.333 for the second.

Compared with NCI-H2342, SK-MES-1 is lower in relative viability: 0.758 for the first, 0.737 for the second.

First: HARA
Second: COR-L23
The relative viability of the first is higher: 0.224 for the first, 0.21 for the second.

Compared with COR-L 105, SW 900 is lower in relative viability: 0.841 for the first, 0.454 for the second.

First: NCI-H1648
Second: NCI-H1792
The relative viability of the first is higher: 0.956 for the first, 0.634 for the second.

Compared with NCI-H661, NCI-H1563 is lower in relative viability: 0.92 for the first, 0.918 for the second.

Going from LCLC-103H to NCI-H358, the relative viability falls from 0.5 to 0.144.

Same assay, conditions: first compound 0.6325 µM

First: NCI-H522
Second: PC-14
The relative viability of the first is higher: 0.783 for the first, 0.127 for the second.

Compared with NCI-H1666, NCI-H1755 is lower in relative viability: 0.755 for the first, 0.509 for the second.

Compared with NCI-H2023, EPLC-272H is higher in relative viability: 0.195 for the first, 0.34 for the second.

Compared with LCLC-97TM1, PC-3 [JPC-3] is higher in relative viability: 0.258 for the first, 0.836 for the second.

Compared with LOU-NH91, NCI-H647 is lower in relative viability: 0.385 for the first, 0.173 for the second.

Compared with NCI-H23, EMC-BAC-2 is higher in relative viability: 0.529 for the first, 0.574 for the second.

Compared with NCI-H2126, HCC-44 is higher in relative viability: 0.568 for the first, 0.75 for the second.

Compared with NCI-H1734, NCI-H650 is higher in relative viability: 0.418 for the first, 1.16 for the second.

First: LK-2
Second: NCI-H2228
The relative viability of the first is higher: 0.375 for the first, 0.33 for the second.

Going from NCI-H2342 to SK-MES-1, the relative viability falls from 0.839 to 0.461.

Going from HARA to COR-L23, the relative viability falls from 0.217 to 0.194.

Compared with COR-L 105, SW 900 is lower in relative viability: 0.582 for the first, 0.441 for the second.

Going from NCI-H1648 to NCI-H1792, the relative viability falls from 0.904 to 0.557.

First: NCI-H661
Second: NCI-H1563
The relative viability of the first is lower: 0.872 for the first, 0.898 for the second.

First: LCLC-103H
Second: NCI-H358
The relative viability of the first is higher: 0.519 for the first, 0.177 for the second.

What follows are cell lines tested with CC1(C)CCC(CN2CCN(c3ccc(C(=O)NS(=O)(=O)c4ccc(NCC5CCOCC5)c([N+](=O)[O-])c4)c(Oc4cnc5[nH]ccc5c4)c3)CC2)=C(c2ccc(Cl)cc2)C1 [Venetoclax] + CC1(C)CCC(c2ccc(Cl)cc2)=C(CN2CCN(c3ccc(C(=O)NS(=O)(=O)c4ccc(N[C@H](CCN5CCOCC5)CSc5ccccc5)c(S(=O)(=O)C(F)(F)F)c4)cc3)CC2)C1 [Navitoclax] (partner 0.5 µM) in the same assay as above. Conditions: first compound 0.01 µM.
Summary of the method: as §1

Compared with PC-14, NCI-H1666 is lower in relative viability: 0.986 for the first, 0.616 for the second.

Going from EBC-1 to NCI-H1755, the relative viability rises from 0.389 to 1.01.

Compared with NCI-H2023, PC-3 [JPC-3] is lower in relative viability: 0.984 for the first, 0.832 for the second.

Going from LOU-NH91 to NCI-H647, the relative viability rises from 0.594 to 1.16.

First: NCI-H23
Second: EMC-BAC-2
The relative viability of the first is lower: 0.869 for the first, 1.09 for the second.
